# Measured values published in PMC2014744, “A novel p38α MAPK inhibitor suppresses brain proinflammatory cytokine up-regulation and attenuates synaptic dysfunction and behavioral deficits in an Alzheimer's disease mouse model” (Journal of Neuroinflammation, 2007).
# Entries after “also recorded” stand apart in the source; their conditions may differ.
# Experiments:
# [1] = tested on: p38α MAPK; conditions: background statement, no reference given; cited from earlier work
# [2] = Stability in human liver microsomes; format: in vitro ADME; conditions: 5 μM compound; for metabolic stability in human liver microsomes compared with 069A (in words): Fig. 4D, 10 or 30 min incubation
# Description: Briefly, triplicate reaction mixtures contained 0.1 M potassium phosphate buffer (pH 7.4) and a final concentration of the following components: 1 – 1.6 mg/ml total microsomal protein, 5 μM test compound, 1.3 mM NADPH, 3.3 mM MgCl2, 0.4 U/ml glucose-6-phosphate dehydrogenase, and 3.3 mM glucose-6-phosphate in a total volume of 300 μl. Mixtures were incubated at 37°C for 10 or 30 minutes. […] HPLC was performed as described above with 0.1% (v/v) formic acid in water as reagent A and acetonitrile with 0.1% (v/v) formic acid in water as reagent B. Peak quantification was done based upon absorption measurements at 260 nm relative to a standard curve obtained by serial dilutions of compounds.
# [3] = cited from earlier work
# [4] = molecular target: T1, p38α/SAPK2α (Homo sapiens, UniProt Q16539); assay: In vitro p38α MAPK protein kinase assay (myelin basic protein phosphorylation, 32P-ATP); format: biochemical; conditions: Fig. 3B; for p38α MAPK inhibitory activity (in words): increasing concentrations of compound; for fold less active than 069A as p38α MAPK inhibitor: relative to 069A
# T1 construct: purchased Millipore (Billerica, MA)
# T1 sequence (Q16539 whole entry): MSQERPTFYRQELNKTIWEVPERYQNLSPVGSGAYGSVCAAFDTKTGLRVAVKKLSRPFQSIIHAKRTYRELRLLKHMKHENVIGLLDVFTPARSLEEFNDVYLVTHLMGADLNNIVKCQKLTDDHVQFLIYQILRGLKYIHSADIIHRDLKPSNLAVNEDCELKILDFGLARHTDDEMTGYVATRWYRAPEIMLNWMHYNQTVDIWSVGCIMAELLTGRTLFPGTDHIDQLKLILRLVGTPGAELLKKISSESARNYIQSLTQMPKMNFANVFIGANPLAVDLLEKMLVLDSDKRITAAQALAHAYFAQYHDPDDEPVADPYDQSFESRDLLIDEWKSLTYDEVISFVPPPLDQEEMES
# Description: Concentration-dependent inhibition of protein kinase activity was done essentially as previously described. Active p38α/SAPK2α enzyme was obtained from Millipore (Billerica, MA), and bovine myelin basic protein substrate was obtained from Sigma-Aldrich (St. Louis, MO). Enzyme activity assays were done in a final volume of 50 μl and each point was tested in duplicate. Assays were done by incubation with 0.33 mg/ml (18 μM) myelin basic protein, 100 μM ATP and γ-[^32P]ATP (specific activity > 300 cpm/pmol) in assay buffer (50 mM HEPES, pH 7.5, 5 mM MgCl2, 150 mM KCl, 15 mM NaCl, 1 mM DTT). Reactions were initiated by addition of the active p38α kinase at a final concentration of 2 μg/ml, and incubated for 10 min at 30°C. […] When compounds were tested for kinase inhibitory activity, 10X stock solutions of compounds were prepared in DMSO or water, and control samples contained the same final concentration of solvent as the samples containing compound. Data are expressed as percent of the maximal enzyme activity, where enzyme activity in the absence of compound is taken as 100%. IC50 values were calculated by a nonlinear regression data analysis using Microsoft Excel. Selectivity against pathway or structurally related protein kinases was done using purified kinases and standard in vitro assays described previously, and included use of the Millipore (Billerica, MA) kinase screening service at 20 μM final concentration of 069A and 90 μM final concentration of ATP.
# [5] = molecular target: T2, MKK7β (Homo sapiens, UniProt O14733); assay: Millipore/Upstate kinase profiling: MKK7β; format: biochemical; conditions: 20 μM compound; 90 μM ATP; activity without inhibitor = 100%
# T2 construct: purchased Millipore (KinaseProfiler kinase screening service)
# T2 sequence (O14733 1-419): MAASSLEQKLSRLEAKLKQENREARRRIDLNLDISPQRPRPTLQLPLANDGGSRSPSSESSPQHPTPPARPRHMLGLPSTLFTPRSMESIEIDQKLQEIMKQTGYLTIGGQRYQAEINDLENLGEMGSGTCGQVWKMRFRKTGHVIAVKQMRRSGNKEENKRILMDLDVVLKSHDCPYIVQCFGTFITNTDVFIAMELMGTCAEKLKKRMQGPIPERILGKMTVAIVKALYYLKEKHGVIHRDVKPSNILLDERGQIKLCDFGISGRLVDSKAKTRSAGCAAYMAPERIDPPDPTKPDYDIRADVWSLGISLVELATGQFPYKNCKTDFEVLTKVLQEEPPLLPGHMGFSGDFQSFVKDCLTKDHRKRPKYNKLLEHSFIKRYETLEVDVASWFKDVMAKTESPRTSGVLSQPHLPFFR
# [6] = tested on: C57Bl/6 mice infused ICV with human oligomeric Aβ1–42; assay: AD mouse model (ICV infusion of human oligomeric Aβ1–42): Y-maze spontaneous alternation; format: in vivo; conditions: 2.5 mg/kg oral once daily for 2 weeks from day 21; Y-maze days 50-60
# Description: (§1) The four-week intracerebroventricular (ICV) infusion of human oligomeric Aβ1-42 or Hepes/HDL vehicle into C57Bl/6 mice was done as previously described. Mice were administered by oral gavage either […] (2.5 mg/kg) or solvent control (DMSO) in a 0.5% (w/v) carboxymethylcellulose suspension. Compound administration began at day 21 after the start of Aβ infusion, and continued on a once daily administration schedule for 14 days. Beginning at day 50 after the start of Aβ infusion, the Y-maze test of spontaneous alternation was done once daily for 10 days to evaluate hippocampal-dependent spatial learning as described previously. At day 60, mice were anesthetized, perfused, and sacrificed as previously described. Hippocampal extract supernatants were prepared by dounce and sonication, followed by centrifugation as described previously. Levels of the proinflammatory cytokines IL-1β and TNFα in hippocampal supernatants were measured by ELISA (Biosource International) per the manufacturer's instructions. S100B and synaptophysin levels were measured by ELISA as previously described.
# [7] = Brain uptake: compound in brain homogenate after oral gavage; format: in vivo, C57Bl/6 mice; conditions: mice, 2.5 mg/kg oral gavage; brain homogenate after perfusion
# Description: (§2) Analysis of oral bioavailability (concentration of compound in the blood as a function of time after oral administration) and brain uptake was done by a modification of that previously described. Briefly, 069A (2.5 mg/kg) was administered to C57Bl/6 mice by oral gavage in a 0.5% (w/v) carboxymethylcellulose suspension. At 5, 15, 30, 60, and 120 min after compound administration, blood was collected in heparinized tubes from anesthetized animals and plasma obtained by centrifugation. After perfusion, brains were harvested, homogenized in 0.1% formic acid and deproteinized with ice-cold acetonitrile. After centrifugation to remove precipitated protein, the brain homogenate supernatants were further diluted with 0.1% formic acid. The plasma samples were acidified by diluting with 0.1% formic acid (1:3, v:v). Solid phase extraction followed by HPLC analysis was used to quantify the amount of compound in the plasma and brain supernatants, with compound MW01-6-189WH used as an internal standard. Briefly, 30 mg cartridges (Oasis® HLB, Waters) were conditioned with 1 mL of acetonitrile and equilibrated with 1 mL of water. Acidified samples were loaded onto the cartridge followed by a 1 mL wash with 5% acetonitrile. Compound was eluted from the cartridge using 100% acetonitrile. The eluate was evaporated to dryness, reconstituted in 60% acetonitrile/0.1% formic acid/water and analyzed by HPLC. […]
# [8] = Lipophilicity determination (log P), shake-flask; format: physicochemical; conditions: 1-octanol/water shake-flask, 25°C
# Description: The partition coefficient was determined by the shake-flask method. The starting solution (0.3 mg/mL) of analyzed compound was prepared in presaturated 1-octanol (Sigma-Aldrich, St. Louis, MO). 1 mL of the octanol phase was agitated on a plate shaker with 10 mL of presaturated Milli-Q water for 2 hrs at 25°C. After partitioning, 1 mL of the aqueous phase was centrifuged in a microfuge for 10 min at 16,000 × g. 20 μL of the sample were analyzed with reversed-phase HPLC as described above to determine the concentration of the aqueous phase (caq). The log P is calculated according to the formula: log P = log10 [(0.3 – caq)/caq].
# [9] = Aqueous solubility determination (log S); format: physicochemical; conditions: thermodynamic from solid, Milli-Q water, 22°C
# Description: For aqueous solubility (log S) determination, compound 069A was weighed on a Sartorius AG (Goettingen, Germany) analytical balance, and Milli-Q water was added to create an oversaturated solution (suspension). Sample tubes were stirred for 24 hrs at ambient temperature (t = 22°C). 1 mL of the samples were centrifuged in a microfuge at 16,000 × g for 10 min, and 20 μL was subjected to reverse-phase HPLC analysis to determine the concentration of the compound (caq). The concentration of compound in the aqueous phase (caq) was determined by peak detection at 254 nm at the appropriate retention time relative to a standard curve obtained from serial dilutions of the compound. The log S was calculated as common logarithm (log10) of caq.
# [10] = tested on: 44 other purified protein kinases; assay: Millipore kinase screen, summary for the non-p38 kinases; format: biochemical; conditions: 20 μM compound, Table 1
# Description: (§3) Enzyme activity assays were done in a final volume of 50 μl and each point was tested in duplicate. […] When compounds were tested for kinase inhibitory activity, 10X stock solutions of compounds were prepared in DMSO or water, and control samples contained the same final concentration of solvent as the samples containing compound. Data are expressed as percent of the maximal enzyme activity, where enzyme activity in the absence of compound is taken as 100%. IC50 values were calculated by a nonlinear regression data analysis using Microsoft Excel. Selectivity against pathway or structurally related protein kinases was done using purified kinases and standard in vitro assays described previously [69, 70], and included use of the Millipore (Billerica, MA) kinase screening service at 20 μM final concentration of 069A and 90 μM final concentration of ATP.
# [11] = molecular target: T3, p38β (Homo sapiens, UniProt Q15759); assay: Millipore/Upstate kinase profiling: p38β; format: biochemical; conditions: 20 μM compound
# T3 construct: purchased Millipore (KinaseProfiler kinase screening service)
# T3 sequence (Q15759 whole entry): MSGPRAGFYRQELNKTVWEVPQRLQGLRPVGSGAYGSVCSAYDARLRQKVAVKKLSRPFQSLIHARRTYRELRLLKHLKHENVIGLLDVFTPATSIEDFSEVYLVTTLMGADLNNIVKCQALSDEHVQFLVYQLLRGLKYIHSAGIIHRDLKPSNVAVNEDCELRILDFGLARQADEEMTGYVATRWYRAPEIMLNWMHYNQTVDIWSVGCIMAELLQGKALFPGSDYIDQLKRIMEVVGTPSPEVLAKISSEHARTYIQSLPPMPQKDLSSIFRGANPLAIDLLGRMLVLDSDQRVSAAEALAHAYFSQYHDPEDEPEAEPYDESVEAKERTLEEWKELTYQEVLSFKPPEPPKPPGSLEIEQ
# Description: as §3
# [12] = tested on: C57Bl/6 mice; assay: Liver toxicity screen (histology after two weeks of daily oral dosing); format: in vivo; conditions: 2.5 mg/kg oral gavage once daily for 2 weeks
# Description: Screening for histological liver injury after chronic, therapeutic dose administration of compound was done as previously described. Briefly, C57Bl/6 mice were administered by oral gavage either […] (2.5 mg/kg) or solvent control (DMSO) in a 0.5% (w/v) carboxymethylcellulose suspension. Compound or vehicle administration was once daily for two weeks. Livers were then removed, fixed in 4% (v/v) paraformaldehyde, and paraffin-embedded for histology. To assess histological toxicity, 4 μm liver sections were stained with haematoxylin and eosin. Two independent observers blinded to the treatment groups performed microscopic assessment of the tissue for injury by using a semi-quantitative histological scoring system that considers architecture features (normal to extensive fibrosis), cellular features (normal to extensive edema and widespread necrosis), and degree of inflammatory infiltrate (normal to extensive infiltrate).
# [13] = molecular target: T4, MKK4 (Mus musculus, UniProt P47809); assay: Millipore/Upstate kinase profiling: MKK4; format: biochemical; conditions: 20 μM compound; 90 μM ATP; activity without inhibitor = 100%
# T4 construct: purchased Millipore (KinaseProfiler kinase screening service)
# T4 sequence (P47809 1-397): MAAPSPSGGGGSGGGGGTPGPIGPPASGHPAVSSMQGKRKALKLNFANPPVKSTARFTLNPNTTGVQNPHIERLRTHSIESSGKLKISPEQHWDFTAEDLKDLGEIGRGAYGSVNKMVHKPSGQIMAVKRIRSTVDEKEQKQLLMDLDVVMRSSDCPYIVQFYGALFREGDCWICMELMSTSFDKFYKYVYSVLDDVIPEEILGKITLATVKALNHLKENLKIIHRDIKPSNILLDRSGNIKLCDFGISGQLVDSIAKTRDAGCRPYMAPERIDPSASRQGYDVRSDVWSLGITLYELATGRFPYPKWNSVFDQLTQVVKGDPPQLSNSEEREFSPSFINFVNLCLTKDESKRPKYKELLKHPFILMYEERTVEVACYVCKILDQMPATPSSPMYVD
# [14] = tested on: C57Bl/6 mice infused ICV with human oligomeric Aβ1–42; assay: AD mouse model (ICV infusion of human oligomeric Aβ1–42): hippocampal protein levels by ELISA; format: in vivo; conditions: 2.5 mg/kg oral once daily for 2 weeks from day 21 after start of Aβ infusion; day 60
# Description: as §1
# [15] = Oral bioavailability: compound in plasma after oral gavage; format: in vivo, C57Bl/6 mice; conditions: mice, 2.5 mg/kg oral gavage; earliest time point analyzed
# Description: as §2
compound,measurement,setting,value
Cc1cc(-c2ccccc2)nnc1N1CCN(c2ncccn2)CC1 [Minozac],p38α MAPK inhibition (in words),[1],not an inhibitor
same,metabolic stability in human liver microsomes compared with 069A (in words),[2],069A is not as metabolically stable as Minozac
same,blood-brain barrier penetrance,[3],good blood-brain barrier penetrance
"c1ccc(-c2ccc(N3CCN(c4ncccn4)CC3)nn2)cc1 [MW01-3-183WH, 3-phenyl-6-(4-(pyrimidin-2-yl)piperazin-1-yl)pyridazine]",p38α MAPK inhibitory activity (in words),[4],lacks inhibitory activity
same,fold less active than 069A as p38α MAPK inhibitor,[4],> 100 fold
Cc1cc(-c2ccccc2)nnc1NCCN1CCOCC1 [Minaprine],metabolic stability in human liver microsomes compared with 069A (in words),[2],"it is more stable than the structurally related, clinical CNS drug Minaprine"
c1ccc(-c2cc(-c3ccncc3)c(N3CCN(c4ncccn4)CC3)nn2)cc1 [MW01-6-189WH],p38α MAPK inhibitory activity (in words),[4],does not generate MAPK inhibitory activity
same,fold less active than 069A as p38α MAPK inhibitor,[4],> 100 fold
c1ccc(-c2nnc(N3CCN(c4ncccn4)CC3)cc2-c2ccncc2)cc1 [MW01-2-069A-SRM],% kinase activity (MKK7β),[5],103%
same,Aβ-induced Y-maze behavioral deficit,[6],ameliorates the Y-maze behavioral deficit
same,time at which compound appears in brain after oral administration,[7],≤ 5 min
same,time of peak brain concentration after oral administration,[7],5 to 15 min
same,logP at 2 h,[8],3.18
same,solubility at 24 h,[9],9.54 µg/mL
same,inhibition of 44 other purified protein kinases (in words),[10],little or no inhibition
same,% kinase activity (p38β),"[11]; 90 μM ATP, activity without inhibitor = 100%",30%
same,inhibition of p38β (in words),[11]; Millipore screen,partial inhibition
same,adverse clinical effects during treatment,[12],no adverse clinical effects
same,histological liver injury,"[12]; compared with vehicle, 2.5 mg/kg",did not induce any histological indices of liver tissue injury; also recorded: no significant liver toxicity
same,compound remaining after incubation with human liver microsomes,"[2]; 10 min incubation, 37°C",~ 70%
same,% kinase activity (MKK4),[13],117%
same,Aβ-induced loss of synaptophysin in hippocampal extracts,[14],attenuates this loss of synaptophysin
same,Aβ-induced overproduction of IL-1β in hippocampal extracts,[14],significantly reduced
same,Aβ-induced overproduction of S100B in hippocampal extracts,[14],significantly reduced
same,Aβ-induced overproduction of TNFα in hippocampal extracts,[14],significantly reduced
same,time at which compound is detected in plasma after oral administration,[15],≤ 5 min
"c1ccc(-c2nnc(N3CCN(c4ncccn4)CC3)cc2-c2cccnc2)cc1 [MW01-4-119SRM, 3-phenyl-4-(pyridin-3-yl)-6-(4-(pyrimidin-2-yl)piperazin-1-yl)pyridazine]",p38α MAPK inhibitory activity (in words),[4],major loss of activity
same,fold less active than 069A as p38α MAPK inhibitor,[4],> 100 fold
